Experimental data from ChEMBL document CHEMBL1250443, “Microarray-based method for monitoring yeast overexpression strains reveals small-molecule targets in TOR pathway” (Nat Chem Biol, 2006).

Assays:
[1] = Inhibition of TOR signaling in wild-type Saccharomyces cerevisiae transformed with overexpression plasmids assessed as decreased SUT2 gene expression by microarray
[2] = Inhibition of TOR signaling in wild-type Saccharomyces cerevisiae transformed with overexpression plasmids assessed as decreased CDC42 gene expression by microarray
[3] = Inhibition of TOR signaling in wild-type Saccharomyces cerevisiae transformed with overexpression plasmids assessed as decreased YKL174C gene expression by microarray
[4] = Inhibition of TOR signaling in wild-type Saccharomyces cerevisiae transformed with overexpression plasmids assessed as decreased OLE1 gene expression by microarray
[5] = Inhibition of TOR signaling in wild-type Saccharomyces cerevisiae transformed with overexpression plasmids assessed as increased YLR346C gene expression by microarray
[6] = Inhibition of TOR signaling in wild-type Saccharomyces cerevisiae transformed with overexpression plasmids assessed as increased SEC14 gene expression by microarray
[7] = Inhibition of TOR signaling in wild-type Saccharomyces cerevisiae transformed with overexpression plasmids assessed as increased YDL025C gene expression by microarray
[8] = Inhibition of TOR signaling in wild-type Saccharomyces cerevisiae transformed with overexpression plasmids assessed as increased THI21 gene expression by microarray
Saccharomyces cerevisiae [9] = test: Decrease of YKR75C gene expression in wild-type Saccharomyces cerevisiae transformed with overexpression plasmids by microarray; assay type: functional
Saccharomyces cerevisiae [10] = test: Increase of FMP38 gene expression in wild-type Saccharomyces cerevisiae transformed with overexpression plasmids by microarray; assay type: functional
[11] = Inhibition of TOR signaling in wild-type Saccharomyces cerevisiae transformed with overexpression plasmids assessed as increased YPR153W gene expression by microarray
[12] = Inhibition of TOR signaling in wild-type Saccharomyces cerevisiae transformed with overexpression plasmids assessed as decreased NRG1 gene expression by microarray
Saccharomyces cerevisiae [13] = test: Decrease of YDR222W gene expression in wild-type Saccharomyces cerevisiae transformed with overexpression plasmids by microarray; assay type: functional
[14] = Inhibition of TOR signaling in wild-type Saccharomyces cerevisiae transformed with overexpression plasmids assessed as increased GPM3 gene expression by microarray
[15] = Inhibition of TOR signaling in wild-type Saccharomyces cerevisiae transformed with overexpression plasmids assessed as decreased YCR007C gene expression by microarray
[16] = Inhibition of TOR signaling in wild-type Saccharomyces cerevisiae transformed with overexpression plasmids assessed as increased YDL063C gene expression by microarray
[17] = Inhibition of TOR signaling in wild-type Saccharomyces cerevisiae transformed with overexpression plasmids assessed as increased URA5 gene expression by microarray
[18] = Inhibition of TOR signaling in wild-type Saccharomyces cerevisiae transformed with overexpression plasmids assessed as decreased BUD8 gene expression by microarray
[19] = Inhibition of TOR signaling in wild-type Saccharomyces cerevisiae transformed with overexpression plasmids assessed as increased YOR042W gene expression by microarray
[20] = Inhibition of TOR signaling in wild-type Saccharomyces cerevisiae transformed with overexpression plasmids assessed as decreased YMR034C gene expression by microarray
[21] = Inhibition of TOR signaling in wild-type Saccharomyces cerevisiae transformed with overexpression plasmids assessed as increased CDC33 gene expression by microarray
[22] = Inhibition of TOR signaling in wild-type Saccharomyces cerevisiae transformed with overexpression plasmids assessed as increased CIT1 gene expression by microarray
[23] = Inhibition of TOR signaling in wild-type Saccharomyces cerevisiae transformed with overexpression plasmids assessed as increased LIN1 gene expression by microarray
[24] = Inhibition of TOR signaling in wild-type Saccharomyces cerevisiae transformed with overexpression plasmids assessed as increased NOG1 gene expression by microarray
[25] = Inhibition of TOR signaling in wild-type Saccharomyces cerevisiae transformed with overexpression plasmids assessed as decreased CDC16 gene expression by microarray
[26] = Inhibition of TOR signaling in wild-type Saccharomyces cerevisiae transformed with overexpression plasmids assessed as increased APN2 gene expression by microarray
[27] = Inhibition of TOR signaling in wild-type Saccharomyces cerevisiae transformed with overexpression plasmids assessed as decreased ATX2 gene expression by microarray
[28] = Inhibition of TOR signaling in wild-type Saccharomyces cerevisiae transformed with overexpression plasmids assessed as increased YEL070W gene expression by microarray
[29] = Inhibition of TOR signaling in wild-type Saccharomyces cerevisiae transformed with overexpression plasmids assessed as decreased EFR3 gene expression by microarray
[30] = Inhibition of TOR signaling in wild-type Saccharomyces cerevisiae transformed with overexpression plasmids assessed as decreased APM2 gene expression by microarray
[31] = Inhibition of TOR signaling in wild-type Saccharomyces cerevisiae transformed with overexpression plasmids assessed as increased PZF1 gene expression by microarray
[32] = Inhibition of TOR signaling in wild-type Saccharomyces cerevisiae transformed with overexpression plasmids assessed as decreased PUT4 gene expression by microarray
[33] = Inhibition of TOR signaling in wild-type Saccharomyces cerevisiae transformed with overexpression plasmids assessed as decreased APL4 gene expression by microarray
[34] = Inhibition of TOR signaling in wild-type Saccharomyces cerevisiae transformed with overexpression plasmids assessed as increased CDC54 gene expression by microarray
[35] = Inhibition of TOR signaling in wild-type Saccharomyces cerevisiae transformed with overexpression plasmids assessed as decreased GIP3 gene expression by microarray
[36] = Inhibition of TOR signaling in wild-type Saccharomyces cerevisiae transformed with overexpression plasmids assessed as decreased CAJ1 gene expression by microarray
[37] = Inhibition of TOR signaling in wild-type Saccharomyces cerevisiae transformed with overexpression plasmids assessed as increased ALD6 gene expression by microarray
Saccharomyces cerevisiae [38] = test: Decrease of RIM11 gene expression in wild-type Saccharomyces cerevisiae transformed with overexpression plasmids by microarray; assay type: functional
[39] = Inhibition of TOR signaling in wild-type Saccharomyces cerevisiae transformed with overexpression plasmids assessed as increased SAS10 gene expression by microarray
[40] = Inhibition of TOR signaling in wild-type Saccharomyces cerevisiae transformed with overexpression plasmids assessed as decreased HOL1 gene expression by microarray
[41] = Inhibition of TOR signaling in wild-type Saccharomyces cerevisiae transformed with overexpression plasmids assessed as increased NCL1 gene expression by microarray
[42] = Inhibition of TOR signaling in wild-type Saccharomyces cerevisiae transformed with overexpression plasmids assessed as increased YOL157C gene expression by microarray
[43] = Inhibition of TOR signaling in wild-type Saccharomyces cerevisiae transformed with overexpression plasmids assessed as decreased PEX7 gene expression by microarray
[44] = Inhibition of TOR signaling in wild-type Saccharomyces cerevisiae transformed with overexpression plasmids assessed as decreased YCL036W gene expression by microarray
[45] = Inhibition of TOR signaling in wild-type Saccharomyces cerevisiae transformed with overexpression plasmids assessed as decreased AZR1 gene expression by microarray

CO[C@H]1C[C@@H]2CC[C@@H](C)[C@@](O)(O2)C(=O)C(=O)N2CCCC[C@H]2C(=O)O[C@H]([C@H](C)C[C@@H]2CC[C@@H](O)[C@H](OC)C2)CC(=O)[C@H](C)/C=C(\C)[C@@H](O)[C@@H](OC)C(=O)[C@H](C)C[C@H](C)/C=C/C=C/C=C/1C [SIROLIMUS]
fold change (FC) [1]: -3.8
fold change (FC) [2]: -2
fold change (FC) [3]: -5.6
fold change (FC) [4]: -3.2
fold change (FC) [5]: 2.7
fold change (FC) [6]: 4.1
fold change (FC) [7]: 2.5
fold change (FC) [8]: 2.2
fold change (FC) (Saccharomyces cerevisiae [9]): -2.5
fold change (FC) (Saccharomyces cerevisiae [10]): -3.2
fold change (FC) [11]: 2.1
fold change (FC) [12]: -2.3
fold change (FC) (Saccharomyces cerevisiae [13]): 5
fold change (FC) [14]: 2.5
fold change (FC) [15]: -2.2
fold change (FC) [16]: 2.5
fold change (FC) [17]: 2.2
fold change (FC) [18]: -6.4
fold change (FC) [19]: 2.7
fold change (FC) [20]: -4.4
fold change (FC) [21]: 2
fold change (FC) [22]: 2.1
fold change (FC) [23]: 2.5
fold change (FC) [24]: 2.9
fold change (FC) [25]: -2.3
fold change (FC) [26]: 2.1
fold change (FC) [27]: -2
fold change (FC) [28]: 3
fold change (FC) [29]: -3.1
fold change (FC) [30]: -2.4
fold change (FC) [31]: 2.1
fold change (FC) [32]: -3.1
fold change (FC) [33]: -2.7
fold change (FC) [34]: 4.5
fold change (FC) [35]: -2.3
fold change (FC) [36]: -5.6
fold change (FC) [37]: 3
fold change (FC) (Saccharomyces cerevisiae [38]): 2.9
fold change (FC) [39]: 2.3
fold change (FC) [40]: -4.5
fold change (FC) [41]: 7.4
fold change (FC) [42]: 7.1
fold change (FC) [43]: -2.8
fold change (FC) [44]: -2.1
fold change (FC) [45]: -3.1
